Measured values published in ChEMBL document CHEMBL1158607, “2' biaryl amides as novel and subtype selective M1 agonists. Part I: Identification, synthesis, and initial SAR” (Bioorg Med Chem Lett, 2010).
Calls of active or inactive are those of the source. The rule behind the calls is not given here.

How the values were obtained:
[1] = target: T1, Muscarinic acetylcholine receptor M4 (Homo sapiens) (UniProt P08173); assay: Agonist activity at human muscarinic M4 receptor expressed in CHO cells assessed as effect on acetylcholine-induced intracellular calcium level by FLIPR assay; type: functional, cell-based
T1 sequence (whole entry): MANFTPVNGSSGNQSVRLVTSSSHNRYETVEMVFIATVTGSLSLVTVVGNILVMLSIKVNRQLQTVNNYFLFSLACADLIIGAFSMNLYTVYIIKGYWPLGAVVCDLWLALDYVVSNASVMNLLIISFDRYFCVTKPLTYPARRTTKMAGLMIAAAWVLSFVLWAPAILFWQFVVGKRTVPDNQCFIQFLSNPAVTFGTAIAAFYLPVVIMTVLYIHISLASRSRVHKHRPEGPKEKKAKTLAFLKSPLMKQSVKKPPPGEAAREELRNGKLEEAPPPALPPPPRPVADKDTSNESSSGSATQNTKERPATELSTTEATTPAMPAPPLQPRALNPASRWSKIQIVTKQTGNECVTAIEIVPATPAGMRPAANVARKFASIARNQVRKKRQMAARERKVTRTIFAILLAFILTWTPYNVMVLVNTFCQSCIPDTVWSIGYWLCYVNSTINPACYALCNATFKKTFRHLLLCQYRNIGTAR

[2] = target: T2, Muscarinic acetylcholine receptor M3 (Homo sapiens, UniProt P20309); assay: Agonist activity at human muscarinic M3 receptor expressed in CHO cells assessed as effect on acetylcholine-induced intracellular calcium level by FLIPR assay; type: functional, cell-based
Target sequence in this assay (P20309 whole entry, looked up): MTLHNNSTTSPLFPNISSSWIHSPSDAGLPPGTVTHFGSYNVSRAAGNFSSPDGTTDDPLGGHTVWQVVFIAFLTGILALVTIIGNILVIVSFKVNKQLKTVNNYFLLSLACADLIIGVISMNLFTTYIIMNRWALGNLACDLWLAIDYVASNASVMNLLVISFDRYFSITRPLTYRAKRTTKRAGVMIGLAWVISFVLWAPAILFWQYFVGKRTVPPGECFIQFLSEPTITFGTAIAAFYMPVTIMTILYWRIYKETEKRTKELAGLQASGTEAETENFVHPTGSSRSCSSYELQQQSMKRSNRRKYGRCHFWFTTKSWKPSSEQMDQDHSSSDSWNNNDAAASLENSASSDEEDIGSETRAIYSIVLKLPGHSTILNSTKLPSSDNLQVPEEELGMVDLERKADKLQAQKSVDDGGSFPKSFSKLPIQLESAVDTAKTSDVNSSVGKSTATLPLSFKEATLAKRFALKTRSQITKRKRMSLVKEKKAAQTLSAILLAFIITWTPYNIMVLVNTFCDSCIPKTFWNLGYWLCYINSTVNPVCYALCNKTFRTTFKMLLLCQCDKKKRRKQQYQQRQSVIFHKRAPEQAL

[3] = target: T3, Muscarinic acetylcholine receptor M2 (Homo sapiens) (UniProt P08172); assay: Agonist activity at human muscarinic M2 receptor expressed in CHO cells assessed as effect on acetylcholine-induced intracellular calcium level by FLIPR assay; type: functional, cell-based
T3 sequence (whole entry): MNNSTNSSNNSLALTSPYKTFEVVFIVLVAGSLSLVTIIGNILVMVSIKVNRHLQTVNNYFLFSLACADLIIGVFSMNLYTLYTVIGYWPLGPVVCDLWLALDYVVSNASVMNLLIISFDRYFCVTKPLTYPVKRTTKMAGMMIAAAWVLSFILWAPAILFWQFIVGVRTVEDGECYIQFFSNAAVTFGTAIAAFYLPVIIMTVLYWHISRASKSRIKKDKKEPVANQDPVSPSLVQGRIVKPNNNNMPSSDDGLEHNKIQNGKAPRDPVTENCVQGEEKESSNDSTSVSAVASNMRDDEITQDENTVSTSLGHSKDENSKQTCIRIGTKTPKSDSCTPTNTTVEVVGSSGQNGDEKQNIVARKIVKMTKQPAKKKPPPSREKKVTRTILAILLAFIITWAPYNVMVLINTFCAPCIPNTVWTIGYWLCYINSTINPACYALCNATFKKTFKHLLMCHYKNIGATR

[4] = target: T4, Muscarinic acetylcholine receptor M1 (Homo sapiens) (UniProt P11229); assay: Intrinsic activity at human muscarinic M1 receptor expressed in CHO cells assessed as effect on acetylcholine-induced intracellular calcium level by FLIPR assay relative to acetylcholine; type: functional, cell-based
T4 sequence (whole entry): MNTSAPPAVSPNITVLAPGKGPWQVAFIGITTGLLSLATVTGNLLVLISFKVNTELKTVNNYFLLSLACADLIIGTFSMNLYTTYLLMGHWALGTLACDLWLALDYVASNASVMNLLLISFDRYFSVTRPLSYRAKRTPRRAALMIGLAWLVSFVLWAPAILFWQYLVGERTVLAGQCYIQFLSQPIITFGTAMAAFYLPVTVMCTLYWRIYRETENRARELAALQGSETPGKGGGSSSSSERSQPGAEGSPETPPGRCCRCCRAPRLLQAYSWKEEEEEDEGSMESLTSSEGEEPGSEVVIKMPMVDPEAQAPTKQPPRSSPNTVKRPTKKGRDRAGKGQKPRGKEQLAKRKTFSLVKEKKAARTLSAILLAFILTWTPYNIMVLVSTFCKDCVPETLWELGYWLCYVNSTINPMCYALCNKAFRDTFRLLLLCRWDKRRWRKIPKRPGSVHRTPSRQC

[5] = target: T5, Muscarinic acetylcholine receptor M5 (Homo sapiens) (UniProt P08912); assay: Agonist activity at human muscarinic M5 receptor expressed in CHO cells assessed as effect on acetylcholine-induced intracellular calcium level by FLIPR assay; type: functional, cell-based
T5 sequence (whole entry): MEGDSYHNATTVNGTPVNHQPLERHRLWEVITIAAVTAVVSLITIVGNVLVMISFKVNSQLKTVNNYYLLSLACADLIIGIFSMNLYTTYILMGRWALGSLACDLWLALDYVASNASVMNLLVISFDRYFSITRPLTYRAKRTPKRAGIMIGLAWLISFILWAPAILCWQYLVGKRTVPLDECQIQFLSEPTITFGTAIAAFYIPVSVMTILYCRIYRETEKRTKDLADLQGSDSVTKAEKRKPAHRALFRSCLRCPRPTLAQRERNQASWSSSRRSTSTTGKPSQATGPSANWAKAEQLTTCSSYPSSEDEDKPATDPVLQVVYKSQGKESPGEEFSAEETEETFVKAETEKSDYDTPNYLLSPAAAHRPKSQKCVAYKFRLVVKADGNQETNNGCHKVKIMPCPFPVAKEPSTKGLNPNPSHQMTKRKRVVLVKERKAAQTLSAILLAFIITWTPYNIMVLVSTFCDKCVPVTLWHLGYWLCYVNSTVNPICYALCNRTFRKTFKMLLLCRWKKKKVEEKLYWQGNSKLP

[6] = target: T6, Muscarinic acetylcholine receptor M2 (Homo sapiens, UniProt P08172); assay: Inhibition of human muscarinic M2 receptor expressed in CHO cells; type: cell-based
T6 sequence (P08172 whole entry): T3 sequence (whole entry)

[7] = target: T7, Muscarinic acetylcholine receptor M1 (Homo sapiens, UniProt P11229); assay: Agonist activity at human muscarinic M1 receptor expressed in CHO cells assessed as effect on acetylcholine-induced intracellular calcium level by FLIPR assay; type: functional, cell-based
T7 sequence (P11229 whole entry): T4 sequence (whole entry)

[8] = target: T2, Muscarinic acetylcholine receptor M3; assay: Inhibition of human muscarinic M3 receptor expressed in CHO cells; type: cell-based
Target sequence in this assay (P20309 whole entry): as the sequence (P20309 whole entry, looked up) above

[9] = target: T8, Muscarinic acetylcholine receptor M4 (Homo sapiens, UniProt P08173); assay: Inhibition of human muscarinic M4 receptor expressed in CHO cells; type: cell-based
T8 sequence (P08173 whole entry): T1 sequence (whole entry)

[10] = target: T9, Muscarinic acetylcholine receptor M5 (Homo sapiens, UniProt P08912); assay: Inhibition of human muscarinic M5 receptor expressed in CHO cells; type: cell-based
T9 sequence (P08912 whole entry): T5 sequence (whole entry)

[11] = target: Muscarinic acetylcholine receptors; M1 & M2 (Homo sapiens) (UniProt P11229+P08172); assay: Selectivity ratio of EC50 for human muscarinic M2 receptor to EC50 for human muscarinic M1 receptor
[12] = species: Homo sapiens; assay: Selectivity ratio of EC50 for human muscarinic M4 receptor to EC50 for human muscarinic M1 receptor
[13] = species: Homo sapiens; assay: Selectivity ratio of EC50 for human muscarinic M5 receptor to EC50 for human muscarinic M1 receptor
[14] = target: Muscarinic acetylcholine receptor M1 and M3 (Homo sapiens) (UniProt P20309+P11229); assay: Selectivity ratio of EC50 for human muscarinic M3 receptor to EC50 for human muscarinic M1 receptor
Sequence of Muscarinic acetylcholine receptor M1 and M3 (Homo sapiens) (P20309 whole entry, looked up, one chain of several): as the sequence (P20309 whole entry, looked up) above

| Compound | Activity [1] | Activity [2] | Activity [3] | Intrinsic activity [4] [%] | Activity [5] | IC50 [6] [µM] | EC50 [7] [µM] | IC50 [8] [µM] | IC50 [9] [µM] | IC50 [10] [µM] | Ratio EC50 [11] | Ratio EC50 [12] | Ratio EC50 [13] | Ratio EC50 [14] |
| --- | --- | --- | --- | --- | --- | --- | --- | --- | --- | --- | --- | --- | --- | --- |
| O=C(NCC1CCNCC1)c1ccccc1-c1nc(Cl)cs1 | inactive | inactive | inactive | 84 | inactive | – | – | – | – | – | – | – | – | – |
| Cc1ccc(-c2ccccc2C(=O)NCC2CCNCC2)cc1Cl | inactive | inactive | inactive | 91 | inactive | 0.398 | 0.0126 | 0.251 | 0.398 | 0.794 | – | – | – | – |
| CC1CNCCC1CNC(=O)c1ccccc1-c1cccc(Cl)c1 (centres undefined) | inactive | inactive | inactive | 99 | inactive | 3.98 | 0.02 | 1.26 | 3.16 | > 10 | 100 | 100 | 100 | 100 |
| O=C(NCC1CCNCC1)c1ccccc1-c1cccc(Cl)c1 | inactive | inactive | inactive | 86 | inactive | 7.94 | 0.0631 | 3.98 | 5.01 | > 10 | – | – | – | – |
| O=C(NCC1CCNCC1)c1ccccc1-c1cc(Cl)ccc1F | – | – | – | 111 | – | 2 | 0.01 | 1 | 1.58 | 5.01 | 100 | 100 | 100 | 100 |
